Entries after “also recorded” stand apart in the source; their conditions may differ. Read-outs that look alike come from different tables or passages of the source.
Columns and labels:
[1] = target: α-Synuclein (αS) aggregation (Homo sapiens, UniProt P37840); assay: Thioflavin T (ThT) dye-based aggregation assay against aggregation of αS; assay type: biochemical; conditions: lower ThT intensity = higher antagonist activity
Description: The resulting dimers are again evaluated with a ThT assay (step (g)), and the best performing dimer is selected in a step (h). The process is repeated to screen for the best performing trimer (step (i)), and so on.
In particular, FIG. 21 is a graph comparing the relative ThT intensities of various molecules synthesized using the 2D FAST process, in accordance with embodiments. The lower the ThT intensity, the higher the antagonist activity of ligands against the target protein (synuclein aggregation in this example).

C. elegans PD models = assay: C. elegans Parkinson's disease models; assay type: in vivo; conditions: for rescue of PD phenotypes: multiple C. elegans PD models: degeneration of dopaminergic neurons, increase in reactive oxygen species, reduced motility
Description: Using OPs as the basis, the 2D FAST approach was used to identify potent antagonists of α-Synuclein (αS) aggregation, a process central to Parkinson's disease (PD) as discussed above. […] (See, for example, “A 2D Fragment-Assisted Protein Mimetic Approach to Rescue α-Synuclein Aggregation Mediated Early and Post-Disease Parkinson's Phenotypes,” bioRxiv preprint posted 2022 Jul. 13, doi: https://doi.org/10.1101/2022.07.11.499659)

αS oligomers = αS oligomers (Homo sapiens, UniProt P37840); conditions: pathological high molecular weight αS oligomers vs αS monomers (native conformation), cited from earlier work
[2] = mouse model; cited from earlier work
[3] = Parallel Artificial Membrane Permeability Assay (PAMPA); assay type: in vitro ADME; conditions: NS163 compared with NS132
Description: FIG. 22 is a graph comparing the cell permeability of various ligands identified and synthesized using the 2D FAST approach and assessed using the Parallel Artificial Membrane Permeability Assay (PAMPA) technique. […] FIG. 25 is a graph comparing the relative ThT intensities of various molecules synthesized using the 2D FAST process in the presence of αS, in accordance with embodiments.

## Cc1ccc(NC(=O)c2ccc(NC(=O)c3ccc([N+](=O)[O-])c(NCCc4c[nH]c5ccccc45)n3)c(NCC3CCCCC3)n2)c(OCC(=O)O)n1 [NS132]
[1]
  antagonist activity against αS aggregation: most potent tripyridyl; also recorded: antagonist of the multiple facets of αS aggregation
C. elegans PD models
  rescue of PD phenotypes: very effective ligands in rescuing PD phenotypes

## COC(=O)c1cc(OCC(=O)O)c2cccc(NC(=O)c3cc(OC(C)C)c4cccc(NC(=O)c5cc(OCC(=O)O)c6cccc(NC(=O)c7cc(OC(C)C)c8cccc([N+](=O)[O-])c8n7)c6n5)c4n3)c2n1 [SK-129]
αS oligomers
  affinity to αS oligomers relative to αS monomers: 10 fold
αS oligomers; listed as SK-α129
  affinity to αS oligomers relative to αS monomers: ten-fold higher affinity
[2]
  crossing of the BBB: efficiently crosses the BBB
  toxicity: without demonstrating any toxicity

## Cc1ccc(NC(=O)c2ccc([N+](=O)[O-])c(NCC3CCCCC3)n2)c(OCC(=O)O)n1 [NS55]
[1]
  antagonist activity against αS aggregation: potent inhibitor of α-Synuclein aggregation

## Cc1ccc(NC(=O)c2ccc(NC(=O)c3ccc([N+](=O)[O-])c(NCCc4c[nH]c5ccccc45)n3)c(NCC3CCCCC3)n2)c(OCC(=O)NO)n1 [NS163]
[1]
  antagonist activity against αS aggregation: potent antagonist of α-Synuclein aggregation; also recorded: without sacrificing activity
[3]
  cell permeability: increased cell permeability; also recorded: better cell permeability
C. elegans PD models; NS163 as enhanced version of NS132
  activity within a C. elegans Parkinson's disease model: increased cell permeability and activity
C. elegans PD models
  rescue of PD phenotypes: very effective ligands in rescuing PD phenotypes

Reference: patent US20250020658A1, “METHODS FOR SYNTHESIZING AND IDENTIFYING SYNTHETIC PROTEINS INCLUDING TARGETED THERAPEUTICS FOR NEURODEGENERATIVE DISORDERS BASED ON BIO-MIMICRY APPROACHES” (University of Denver, priority 2023, published 2025)
